The values below come from paper PMC12210739, “A sialic acid-binding protein in Toxoplasma gondii contains a conserved globular domain in apicomplexan parasites” (Parasites & Vectors, 2025).

The test system of assay [1] is TgSABP1-6′SL-PAA interaction. Kind of assay: Competitive BLI assay of TgSABP1-6′SL-PAA interaction. In kind it is binding, Toxoplasma gondii. As to conditions: 5 μM TgSABP1; for Inhibition of binding of recombinant TgSABP1 to 6′SL-PAA: SA 5, 10, 20 mM, lactose 25, 50, 100 mM, oseltamivir phosphate 30, 60 mM. The procedure:
To evaluate small molecule-mediated inhibition of TgSABP1-6′SL-PAA interaction, streptavidin biosensors pre-loaded with 2.4 μM 6′SL-PAA until saturation (threshold ≥ 1.5 nm shift) were subjected to competitive binding assays on an Octet K2 system. Four test compounds were diluted to different concentrations in PBST-BSA, including SA (5, 10, and 20 mM), lactose (25, 50, and 100 mM), oseltamivir phosphate (30 and 60 mM), and eltrombopag (5 and 50 μM). The His-tagged TgSABP1 protein was diluted to 5 μM with different concentrations of compounds and incubated for 15 min at room temperature. The competition binding test included equilibration for 90 s in the compound solution, association for 60–180 s in the pre-treated protein solution, dissociation for 60–90 s in the compound solution, and regeneration [3 × 20 s pulses in HCl (pH 1.0) followed by PBS neutralization]. Data parameters were analyzed by ForteBio Data Analysis software (v 9.0.0.14) using the average reference sensors’ subtraction method and 1:1 binding model. All experiments were repeated in triplicate.

Another assay concerns T. gondii. Kind of assay: Anti-parasite activity in vivo.
Assay [2] deals with T. gondii RH-RFP tachyzoites. Kind of assay: T. gondii host cell invasion assay in Vero cells. As to conditions: Toxoplasma gondii. In kind it is cell-based. The procedure: (§1) The anti-invasive activity of eltrombopag against T. gondii was assessed using a fluorescence-based invasion assay with modifications to the established protocols. Toxoplasma gondii RH strains stably expressing red fluorescence protein were added to 2 × 10^5 Vero cells (multiplicity of infection [MOI] of 1:1) pre-treated with the drug or the equivalent volume of DMSO for 1 h. One hour after the parasites were added, the parasites were removed and the cells were gently washed with PBS three times, then incubated with DMEM containing 2% FBS. After 16 h of cultivation, the cells were fixed with 4% PFA and stained with DAPI (Beyotime, Shanghai, China). The numbers of parasitophorous vacuoles (PVs) and host cells were counted in a total of 20 randomly selected fields under a fluorescence microscope (Leica DM4B, Wetzlar, Germany). Invasion efficiency = (number of PVs/number of DAPI^+ cells) × 100%. Meanwhile, the number of parasites in each vacuole was determined. Seventy vacuoles from each coverslip were counted across at least three biological replicates. Intra-vacuolar proliferation was expressed as the mean number of parasites per PV.

Assay [3] has as its system T. gondii RH-RFP tachyzoites. Kind of assay: Intra-vacuolar proliferation (parasites per vacuole). In kind it is cell-based, Toxoplasma gondii. The procedure:
as §1

In general, inhibition refers to the drop in the measured response relative to a control, in per cent. A word on the IC50: it is the midpoint of a concentration-inhibition curve.

The structures appear in SMILES notation.

For `OC[C@H]1O[C@@H](O[C@H]2[C@H](O)[C@@H](O)C(O)O[C@@H]2CO)[C@H](O)[C@@H](O)[C@H]1O` (mixture of isomers) [lactose], the “Inhibition of binding of recombinant TgSABP1 to 6′SL-PAA” value (shortened to “Inhibition of binding … to 6′SL-PAA”) in assay [1] is on record as “did not”.
In the case of `CC(=O)N[C@H]1[C@H]([C@H](O)[C@H](O)CO)OC(O)(C(=O)O)C[C@@H]1O` (some centres unmarked) [SA, sialic acid], the “Inhibition of binding … to 6′SL-PAA” value in assay [1] is “exhibited the inhibition on the binding of recombinant TgSABP1 to 6′SL-PAA in a concentration-dependent manner”.
As for `CC1=NN(c2ccc(C)c(C)c2)C(=O)/C1=N\Nc1cccc(-c2cccc(C(=O)O)c2)c1O` [eltrombopag], in assay [1] (50 μM compound), the “Blocking of binding of recombinant TgSABP1 to 6′SL-PAA” value was “significantly blocked”. In addition, in the assay on T. gondii, the “Anti-parasite activity in vivo” value was “did not show any anti-parasite activity in vivo”. The inhibition at 10 µM in assay [2] (10 μM, vs DMSO control, read-out: Inhibition rate of host cell invasion) worked out at 47.8%. For the same compound, in assay [2] (20 μM, vs DMSO control, read-out: Inhibition rate of host cell invasion), the inhibition at 20 µM is 57.7%. Moreover, the half-inhibitory concentration (IC50) in assay [2] (calculated, read-out: IC50 for anti-invasion of T. gondii) is 11.6 µM. Further, the Intracellular parasite replication result in assay [3] (10 μM) is on record as “without affecting intracellular parasite replication”. Moreover, the “Replication of invaded parasites” value in assay [3] (20 μM, vs DMSO control) is reported as “significantly impaired”.
Take `CCOC(=O)C1=C[C@@H](OC(CC)CC)[C@H](NC(C)=O)[C@@H](N)C1` [oseltamivir phosphate]: the “Inhibition of binding … to 6′SL-PAA” value in assay [1] is on record as “dose-dependent inhibition”. Also, in assay [1] (60 mM compound), the “Blocking of binding of recombinant TgSABP1 to 6′SL-PAA” value was “significantly blocked”.
